Reference: US20090186832A1 (priority 2008, published 2009)
Where a name gives a salt, the structure may show the parent alone. Read-outs that look alike come from different tables or passages of the source.

Tests used:
[1] = dog, in vivo
[2] = for Simulated gastric fluid (pH 1.1): % remaining after 2 h/37° C. / Simulated intestinal fluid (pH 6.8): % remaining after 2 h/37° C.: simulated gi fluid
[3] = dog, in vivo, po
in vivo [4] = conditions: beagle, dog, po, 1 mg, Meptazinol AUCt
in vivo [5] = conditions: dog
[6] = dog, in vivo; remark: listed apart in the source
[7] = cited from earlier work

Compound: CCC(C)[C@@H](NC(=O)Oc1ccc2c3c1OC1[C@@]4(OC)CC[C@@]5(C[C@@H]4[C@@](C)(O)C(C)(C)C)[C@@H](C2)N(CC2CC2)CC[C@]315)C(=O)O (stereo partly drawn) [Buprenorphine isoleucine carbamate]
- Cmax (mean ng/mL ± SD) ([1]; beagle, po): 1.25 ± 0.51 ng/mL
- Mean relative bioavailability % ([1]; beagle, po): 110%
- AUC (mean ngh/mL ± SD) [1]: 13.6 ± 3.9

Compound: COC12CCC3(CC1C(C)(O)C(C)(C)C)C1Cc4ccc(OC(=O)NC(CCCCN)C(=O)O)c5c4C3(CCN1CC1CC1)C2O5 (stereo not drawn) [Buprenorphine lysine carbamate]
- AUC (mean ngh/mL ± SD) [1]: 4.70
- Cmax (mean ng/mL ± SD) [1]: 0.25 ± 0.19 ng/mL
- Mean relative bioavailability % [1]: 38%

Compound: COC12CCC3(CC1C(C)(O)C(C)(C)C)C1Cc4ccc(OC(=O)NC(Cc5ccccc5)C(=O)O)c5c4C3(CCN1CC1CC1)C2O5 (stereo not drawn) [Buprenorphine phenylalanine carbamate]
- AUC (mean ngh/mL ± SD) [1]: 9.66 ± 1.92
- Cmax (mean ng/mL ± SD) [1]: 0.86 ± 0.32 ng/mL
- Mean relative bioavailability % [1]: 84.5%
- pH 10.0 buffer: % remaining after 2 h/20° C. [2]: 74%
- Distilled water (pH 5.9): % remaining after 2h/20° C. [2]: 99%
- Simulated gastric fluid (pH 1.1): % remaining after 2 h/37° C. [2]: 100%
- Simulated intestinal fluid (pH 6.8): % remaining after 2 h/37° C. [2]: 45%

Compound: CCC1(c2cccc(O)c2)CCCCN(C)C1 (stereo not drawn) [Meptazinol HCl]
- AUC (mean ngh/mL ± SD) [3]: 15.6 ± 7.4
- AUC(0-t) (in vivo [4]): 5.87 ng·h/mL

Compound: CC(C)[C@H](NC(=O)Oc1ccc2c3c1OC1C(=O)CC[C@@]4(O)[C@@H](C2)N(C)CC[C@]314)C(=O)O (stereo partly drawn) [Oxymorphone valine carbamate HCl, (S)-2-[(4,5-Epoxy-14-hydroxy-17-methylmorphinan-6-one-3-yl)-oxycarbonylamino]-3-methylbutanoic acid Hydrochloride]
- AUC (in vivo [5]; Beagle, po, 0.5 mg, Oxymorphone valine carbamate AUC): 234 ng·h/mL
- AUC(0-t) (in vivo [5]; Beagle, po, 0.5 mg, Oxymorphone valine carbamate AUCt): 232 ng·h/mL
- Cmax (in vivo [5]; Beagle, po, 0.5 mg, Oxymorphone valine carbamate Cmax): 75 ng/mL
- Mean relative bioavailability % ([6]; Beagle, 0.5 mg/kg): 816%
- Cmax (mean ng/mL ± SD) ([6]; Beagle, po, 0.5 mg/kg): 21.6 ± 7.2 ng/mL
- plasma levels of the prodrug relative to the drug itself ([6]; beagle, po): approx. 4 fold
- AUC (mean ngh/mL ± SD) ([6]; po): 94.4 ± 33.3
- time for which plasma drug levels were maintained above 50% of Cmax, prodrug vs drug itself ([6]; po): almost twice as long

Compound: CN1CC[C@]23c4c5ccc(OC(=O)N[C@@H](Cc6ccccc6)C(=O)O)c4O[C@H]2C(=O)CC[C@@]3(O)[C@H]1C5 [Oxymorphone-Phe-Carbamate]
- pH 10.0 buffer: % remaining after 2 h/20° C. [2]: 17%
- Distilled water (pH 5.9): % remaining after 2h/20° C. [2]: 100%
- Simulated gastric fluid (pH 1.1): % remaining after 2 h/37° C. [2]: 100%
- Simulated intestinal fluid (pH 6.8): % remaining after 2 h/37° C. [2]: 82%

Compound: CCC1(c2cccc(O)c2)CCCCN(C)C1 (stereo not drawn) [meptazinol, 3-(3-Ethyl-1-methyl-azepan-3-yl)-phenol]
- range of observed oral bioavailabilities ([7]; oral, Norbury et al. (1983)): 2-20%
- reported mean bioavailability values ([7]; oral, Norbury et al. (1983)): 4-9%
- oral dose removed as it passes through the liver (first pass metabolism) ([7]; oral): up to 98%
- bioavailability ([7]; rectal formulation, Murray et al. (1989)): 15-20%
- relative standard deviation (variability in meptazinol levels, mean AUC) ([3]; beagle): 26%
- Meptazinol AUC ([3]; beagle, 1 mg): 12.8±3.4

Compound: CN1CC[C@]23c4c5ccc(O)c4O[C@H]2C(=O)CC[C@@]3(O)[C@H]1C5 [oxymorphone, 14-hydroxydihydromorphinone]
- half life ([7]; Adams and Ahdieh (2005)): ~7 h
- food effect: increase of Cmax values ([7]; Opana FDA labeling): ≤ 38%
- absolute oral bioavailability ([7]; Sloan et al. (2005)): 10%
- AUC (in vivo [5]; iv, intravenous AUC value): 146 ng·h/mL

Compound: Oxymorphone-Isoleu-Carbamate
- pH 10.0 buffer: % remaining after 2 h/20° C. [2]: 36%
- Distilled water (pH 5.9): % remaining after 2h/20° C. [2]: 100%
- Simulated gastric fluid (pH 1.1): % remaining after 2 h/37° C. [2]: 100%
- Simulated intestinal fluid (pH 6.8): % remaining after 2 h/37° C. [2]: 97%

Compound: Oxymorphone-Val-Carbamate
- pH 10.0 buffer: % remaining after 2 h/20° C. [2]: 32%
- Distilled water (pH 5.9): % remaining after 2h/20° C. [2]: 100%
- Simulated gastric fluid (pH 1.1): % remaining after 2 h/37° C. [2]: 100%
- Simulated intestinal fluid (pH 6.8): % remaining after 2 h/37° C. [2]: 97%
